According to ChEMBL document CHEMBL1201862, “PubChem BioAssay data set” (2004):
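Values below derive from 48-hour exposures of cells grown in 96-well plates, with endpoints linearly interpolated between the two concentrations bracketing the appropriate inhibition level. GI50 marks 50% less growth.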 Active and inactive are the calls of the source. Rule as the data show it: active = GI50 up to about 1.1 µM and inactive = higher.

Tests used:
Experiment in all cases: NCI-60 cell line screen, 48 h
[1] = tested on: MDA-N
[2] = tested on: OVCAR-3
[3] = tested on: TK-10
[4] = tested on: NCI-H226
[5] = tested on: MDA-MB-231
[6] = tested on: SW-620
[7] = tested on: HL-60
[8] = tested on: MDA-MB-435
[9] = tested on: CAKI-1
[10] = tested on: A498
[11] = tested on: SK-MEL-2
[12] = tested on: SNB-19
[13] = tested on: K562
[14] = tested on: EKVX
[15] = tested on: SK-MEL-28
[16] = tested on: 786-0
[17] = tested on: SF-268
[18] = tested on: SN12C
[19] = tested on: HCC 2998
[20] = tested on: SF-295

Measured: GI50

CCOC(=O)NNC(=O)NCCNC(=O)NNC(=O)OCC
inactive: [1] > 100 µM | [2] > 100 µM | [3] > 100 µM | [4] 98.6 µM | [5] > 100 µM | [6] > 100 µM | [7] > 100 µM | [8] > 100 µM | [9] > 100 µM | [10] > 100 µM | [11] > 100 µM | [12] > 100 µM | [13] > 100 µM | [14] > 100 µM | [15] > 100 µM | [16] > 100 µM | [17] > 100 µM | [18] > 100 µM | [19] > 100 µM

O/N=C1\Nc2ccccc2OCc2cc(Br)c(Br)cc2COc2ccccc2N\C1=N/O
inactive: [1] 14.3 µM | [2] 7.21 µM | [3] 25 µM | [4] 21.5 µM | [20] 16.5 µM | [5] 14.8 µM | [6] 11.8 µM | [7] 5.18 µM | [8] 14.8 µM | [9] 12.9 µM | [10] 17.5 µM | [11] 19.5 µM | [12] 10.7 µM | [13] 4.85 µM | [14] 15.2 µM | [15] 22.6 µM | [16] 10 µM | [17] 8.91 µM | [18] 11.9 µM | [19] 7.71 µM

O=[N+]([O-])c1cc(C2ON=C(c3ccccc3)N2C23CC4CC(CC(C4)C2)C3)ccc1Cl (stereo unspecified)
inactive: [1] > 100 µM | [2] > 100 µM | [3] > 100 µM | [4] 49.5 µM | [20] > 100 µM | [5] > 100 µM | [7] > 100 µM | [8] > 100 µM | [9] > 100 µM | [10] > 100 µM | [11] > 100 µM | [12] > 100 µM | [13] > 100 µM | [14] > 100 µM | [15] > 100 µM | [16] > 100 µM | [17] > 100 µM | [18] > 100 µM | [19] > 100 µM

CC(=O)OCC12C(=O)C[C@@H](C)C3(CC(c4ccoc4)OC3=O)C1CCC(OC(C)=O)C21CO1 (stereo partly specified)
inactive: [1] > 100 µM | [2] > 100 µM | [3] > 100 µM | [4] > 100 µM | [20] > 100 µM | [5] > 100 µM | [6] > 100 µM | [7] > 100 µM | [8] > 100 µM | [9] > 100 µM | [10] > 100 µM | [11] > 100 µM | [12] > 100 µM | [13] > 100 µM | [15] > 100 µM | [16] > 100 µM | [17] > 100 µM | [18] > 100 µM | [19] > 100 µM

CCOC(=O)C1(C#N)C(C#N)(C#N)C1(C#N)C#N
inactive: [1] > 100 µM | [3] > 100 µM | [4] > 100 µM | [20] > 100 µM | [5] > 100 µM | [6] > 100 µM | [7] > 100 µM | [8] > 100 µM | [9] > 100 µM | [10] > 100 µM | [11] > 100 µM | [12] > 100 µM | [13] > 100 µM | [14] > 100 µM | [15] > 100 µM | [16] > 100 µM | [17] > 100 µM | [18] > 100 µM | [19] > 100 µM
